Experimental data published in patent publication US20150216870A1, “Combination of PI3K Inhibitor and C-Met Inhibitor” (Novartis AG, priority 2012, published 2015).
“Also recorded” adds a separate entry of the source.

Tests used:
[1] = system: LN-229; assay: CellTiter-Glo cell viability dose matrix in LN-229 glioblastoma cells; format: cell-based, human; conditions: LN229 (PTEN wildtype, HGF low)
Experimental: (§1) The PI3K inhibitor COMPOUND C and the c-MET receptor tyrosine kinase inhibitor 2-fluoro-N-methyl-4-[7-quinolin-6-yl-methyl)-imidazo[1,2-b][1,2,4]triazin-2yl]benzamide are evaluated in combination in glioblastoma tumor models. COMPOUND C (10 mM) and 2-fluoro-N-methyl-4-[7-quinolin-6-yl-methyl)-imidazo[1,2-b][1,2,4]triazin-2yl]benzamide (10 mM) are dissolved in DMSO, and are stored in aliquots at −20° C.
(§2) Human Glioblastoma cell lines, U-87 MG (PTEN mutant and HGF expressing line), H4 (PTEN mutant and HGF expressing line), A172 (PTEN mutant line with low HGF expression level) and LN-229 (PTEN wildtype and HGF low) are purchased from American Type Cell Collection and are maintained in a humidified incubator at 37° C. in 5% CO2 in recommended media. All four cell lines express detected MET at the mRNA level.
(§3) The cells are passaged twice a week and the medium is changed every 2 to 3 days. […]
(§4) Cell viability is determined by measuring cellular ATP content using the CellTiter-Glo® (CTG) luminescent cell viability assay (Promega). […] An equal volume of the CTG reagents is added to each well at the end of the compound treatment and luminescence is recorded on an Envision plate reader (Perkin Elmer). Reduced and enhanced luminescent signal values (responses) are calculated relative to untreated (control) cells. […]

[2] = system: NCI-H1993 human non-small cell lung carcinoma xenograft; assay: NCI-H1993 xenograft tumor growth inhibition and tumor growth delay; format: in vivo, athymic nude mice; conditions: c-Met inhibitor 17.7 mg/kg p.o. b.i.d. to end
Source text: In this experiment, the NCI-H1993 human non-small cell lung carcinoma xenograft model is used to assess the anti-tumor efficacy of the PI3K inhibitor COMPOUND D and c-Met inhibitor 2-fluoro-N-methyl-4-[7-quinolin-6-yl-methyl)-imidazo[1,2-b][1,2,4]triazin-2yl]benzamide as single agents or in combination. NCI-H1993 tumor cells obtained from the American Type Culture Collection (ATCC) are derived from a lymph node metastasis of a patient having a stage 3A lung adenocarcinoma and a history of smoking.
Female athymic nude mice (Crl:NU (Ncr)-Foxn1^nu, Charles River) are 8 weeks old, and have a body weight (BW) range of 16.1-26.2 g, on D1 of the study. The animals are fed ad libitum water (reverse osmosis, 1 ppm CI) and NIH 31 Modified and Irradiated Lab Diet® consisting of 18.0% crude protein, 5.0% crude fat, and 5.0% crude fiber. The mice are housed on irradiated Enrich-O'cobs™ Laboratory Animal Bedding in static microisolators on a 12-hour light cycle at 20-22° C. (68-72° F.) and 40-60% humidity.
The NCI-H1993 tumor line is obtained from the American Type Culture Collection and maintained at DRS_NC in RPMI-1640 medium containing 100 unites/penicillin G sodium, 100 µg/mL streptomycin sulfate, 25 µg/mL gentamicin, 10% fetal bovine serum, and 2 mM glutamine. The tumor cells are cultured in tissue culture flasks in a humidified incubator at 37° C. in an atmosphere of 5% CO2 and 95% air.
The tumor cells used for implementation are harvested during log phase growth and resuspended in cold PBS containing 50% Matrigel™ (BD Biosciences). Each mouse is injected subcutaneously in the right flank with 1×10^7 cells (0.2 mL cell suspension). Tumors are calipered in two dimensions to monitor growth as their mean volume approached the desired 200-250 mm^3 range. Tumor size, in mm^3, was calculated from: Tumor Volume=(width^2×length)/2, where width and length (in mm) are measurements of the tumor. Tumor weight can be estimated with the assumption that 1 mg is equivalent to 1 mm^3 of tumor volume. Fourteen days after tumor cell implantation, on D1 of the study, mice with individual tumor volumes of 172-256 mm^3 are sorted into groups of ten mice, with group mean tumor volumes of 206-215 mm^3.
The c-Met inhibitor 2-fluoro-N-methyl-4-[7-quinolin-6-yl-methyl)-imidazo[1,2-b][1,2,4]triazin-2yl]benzamide (HCl salt, 84.98% free base) is stored at 4° C. and is added to a volume of deionized water equal to 1/2 of the final volume and sonicated until dissolved to obtain a uniform 2× suspension. An equal volume of 0.5% methylcellulose: 0.1% Tween® 80 is added to provide a 1.77 mg/mL solution with final vehicle concentrations of 0.25% methylcellulose and 0.05% Tween® 80 in deionized water (Vehicle 1). Fresh solutions are prepared once daily for the […]. dosing and stored at room temperature until the a.m. dosing.
COMPOUND D is suspended at 3.0 mg/mL in 0.5% methylcellulose in deionized water. The vehicle is added in portions equal to 1/3 of the final volume. The suspension is vortexed after each addition, and then finally probe sonicated on ice to prepare a homogeneous white suspension. A fresh suspension is prepared weekly, stored at 4° C., and re-suspended prior to dosing.
The c-MET inhibitor and the vehicle is each administered via oral gavage (p.o.) twice daily for the duration of the study (b.i.d. to end). COMPOUND D is administered via oral gavage (p.o.) once daily for the duration of the study (qd to end). In combination therapies, COMPOUND D is dosed within 30 minutes after the c-Met inhibitor. In all groups, the dosing volume of 10 mL/kg (0.2 mL/20 g mouse) is scaled to the weight of each animal as determined on the day of dosing, except on weekends when the previous BW is carried forward.
The groups of nude mice (n=10/group) are treated as follows. Group 1 receive Vehicle 1 and Vehicle 2 and serve as controls for the study. […] Group 3 receives 30 mg/kg COMPOUND D monotherapy once daily for the duration of the study (qd to end).

[3] = system: A172; assay: CellTiter-Glo cell viability dose matrix in A172 glioblastoma cells; format: cell-based, human; conditions: A172 (PTEN mutant, low HGF)
Experimental: as §1, §2, §3, §4

## CNC(=O)c1ccc(-c2cnc3ncc(Cc4ccc5ncccc5c4)n3n2)cc1F [c-Met inhibitor]
[1]
  anti-proliferative activity (single agent): completely inactive
[2]
  % TGD: 97%
  D71 survivors: four
  T-C: 24.2 days
[2]; D20
  T/C or T/T0: 15%
[2]; endpoint 600 mm3
  Median TTE: 49.2 days
[2]; logrank vs control
  overall survival (in words): significantly extends survival; also recorded: significant survival extension
[2]; vs control Group 1
  D20 tumor growth inhibition (in words): does not achieve significant inhibition relative to control; also recorded: non-significant D20 tumor growth inhibition
[3]
  anti-proliferative activity (single agent): completely inactive
